These results are taken from ChEMBL document CHEMBL1128864, “Antitumor activities of -, -monogalactosylceramides and four diastereomers of an -galactosylceramide” (1995).

Type in all cases: functional
Assay [1] concerns Mus musculus. Nature of the assay: Evaluated for life span prolonging effects against female BDF1 mice infected intraperitoneally 1x10E6 P388 cells on day 0 at intravenous dose 0.1 mg/kg on day 1,5,9.
The species entered for assay [2] is Mus musculus. Nature of the assay: Evaluated for lymphocyte proliferation stimulatory effect in BALB/c mice and percent control of [3H]-TdR incorporation using allogenic mixed lymphocyte reaction (MLR) at a dose 10 ng/ml.
The species named for assay [3] is Mus musculus. Nature of the assay: Evaluated for lymphocyte proliferation stimulatory effect in BALB/c mice and percent control of [3H]TdR incorporation at dose 100 ng/ml using allogenic mixed lymphocyte reaction (MLR).
Assay [4] concerns Mus musculus. Nature of the assay: Evaluated for life span prolonging effects against female BDF1 mice infected intraperitoneally 1x10E6 murine melanoma B16 cells on day 0 at dose of 0.1 mg/kg. To be noted: route intraperitoneal.
Assay [5] relates to Mus musculus. The assay is described as follows: Evaluated for life span prolonging effects against female BDF1 mice infected intraperitoneally 1x10E6 murine melanoma B16 cells on day 0 at dose of 1 mg/kg. To be noted: route intraperitoneal.
The species entered for assay [6] is Mus musculus. Nature of the assay: Evaluated for lymphocyte proliferation stimulatory effect in BALB/c mice and percent control of [3H]TdR incorporation using allogenic mixed lymphocyte reaction (MLR) at a dose 1 ng/ml.
The subject of assay [7] is Mus musculus. The assay is described as follows: Percent of tumor growth inhibition ratio (TGIR)of the compound administered intravenously at dose 100 ug/kg(on day 7, 11,15) in subcutaneously infected BDF1 mice on day 14.
Assay [8] relates to Mus musculus. The assay is described as follows: Percent of tumor growth inhibition ratio (TGIR)of the compound administered intravenously at dose 100 ug/kg(on day 7, 11,15) in subcutaneously infected BDF1 mice on day 11.
Assay [9] concerns Mus musculus. The assay is described as follows: Percent of tumor growth inhibition ratio (TGIR)of the compound administered intravenously at dose 100 ug/kg(on day 7, 11,15) in subcutaneously infected BDF1 mice on day 18.
The test system of assay [10] is Mus musculus. The assay is described as follows: Percent of tumor growth inhibition ratio (TGIR)of the compound administered intravenously at dose 100 ug/kg(on day 7, 11,15) in subcutaneously infected BDF1 mice on day 22.
Assay [11] deals with Mus musculus. Nature of the assay: Percent of tumor growth inhibition ratio (TGIR)of the compound administered intravenously at dose 100 ug/kg(on day 1, 5, 9) in subcutaneously infected BDF1 mice on day 16.
Assay [12] deals with Mus musculus. Nature of the assay: Percent of tumor growth inhibition ratio (TGIR)of the compound administered intravenously at dose 100 ug/kg(on day 1, 5, 9) in subcutaneously infected BDF1 mice on day 9.
In assay [13] the test system is Mus musculus. Nature of the assay: Percent of tumor growth inhibition ratio (TGIR)of the compound administered intravenously at dose 100 ug/kg on day 1, 5, 9 in subcutaneously (murine fibrosarcoma Meth A cells) infected in BDF1 mice on day 13.
In assay [14] the test system is Mus musculus. Nature of the assay: Percent of tumor growth inhibition ratio (TGIR)of the compound administered intravenously at dose 100 ug/kg(on day 1, 5, 9) in subcutaneously infected BDF1 mice on day 20.
The subject of assay [15] is Mus musculus. The assay is described as follows: Percent of tumor growth inhibition ratio (TGIR)of the compound administered intravenously at dose 100 ug/kg on day 1, 5, 9 in subcutaneously (murine fibrosarcoma Meth A cells) infected in BDF1 mice on day 16.
Assay [16] has as its system Mus musculus. The assay is described as follows: Percent of tumor growth inhibition ratio (TGIR)of the compound administered intravenously at dose 100 ug/kg on day 1, 5, 9 in subcutaneously (murine fibrosarcoma Meth A cells) infected in BDF1 mice on day 10.
In assay [17] the test system is Mus musculus. Nature of the assay: Percent of tumor growth inhibition ratio (TGIR)of the compound administered intravenously at dose 100 ug/kg(on day 1, 5, 9) in subcutaneously infected BDF1 mice on day 12.
In assay [18] the test system is Mus musculus. Nature of the assay: Percent of tumor growth inhibition ratio (TGIR)of the compound administered intravenously at dose 100 ug/kg on day 1, 5, 9 in subcutaneously (murine fibrosarcoma Meth A cells) infected in BDF1 mice on day 20.

By T/C is commonly meant the ratio of treated to control. Take `CCCCCCCCCCCCCCCCCCCCCC[C@@H](O)C(=O)N[C@@H](CO[C@H]1O[C@@H](CO)[C@H](O)[C@H](O)[C@@H]1O)[C@H](O)[C@H](O)CCCCCCCCCCCC(C)C`: the Survival in the assay with Mus musculus [1] was 11.3 days; in the assay on Mus musculus [4], 27.6 days; in the assay on Mus musculus [5] it was 27 days. Moreover, the values for the T/C with Mus musculus [1], in the assay on Mus musculus [4] and in the assay with Mus musculus [5] were 109%, 149% and 146%, respectively. Moreover, the Control in the assay filed under Mus musculus [2] is recorded as 220%; in the assay listed under Mus musculus [3], 236%; in the assay filed under Mus musculus [6], 184%.
As for `CCCCCCCCCCCCCCCCCCCCCC[C@@H](O)C(=O)N[C@@H](CO[C@H]1O[C@@H](CO)[C@H](O)[C@H](O)[C@@H]1O)[C@H](O)[C@H](O)CCCCCCCCCCCC`, the results for the Survival in the assay with Mus musculus [1], in the assay with Mus musculus [4] and in the assay with Mus musculus [5] were 11 days, 26.8 days and 31.5 days, respectively. For the same molecule, the results for the T/C in the assay on Mus musculus [1], in the assay on Mus musculus [4] and in the assay with Mus musculus [5] were 106%, 145% and 170%, respectively. For the same molecule, the Control in the assay listed under Mus musculus [2] worked out at 258%; in the assay filed under Mus musculus [3] it was 350%; in the assay listed under Mus musculus [6], 253%.
Take `CCCCCCCCCCCCCCCCCCCCCCC[C@@H](O)C(=O)N[C@@H](CO[C@H]1O[C@@H](CO)[C@H](O)[C@H](O)[C@@H]1O)[C@H](O)[C@H](O)CCCCCCCCCCCC(C)CC` (some centres undefined): the Survival is 11.2 days in the assay on Mus musculus [1], 28 days in the assay with Mus musculus [4] and 32 days in the assay with Mus musculus [5]. The T/C was found to be 108% in the assay on Mus musculus [1], 151% with Mus musculus [4] and 173% in the assay with Mus musculus [5]. Besides, the values for the Control in the assay listed under Mus musculus [2], in the assay filed under Mus musculus [3] and in the assay filed under Mus musculus [6] were 281%, 319% and 233%, respectively.
`CCCCCCCCCCCCCCCCCCCCCC[C@@H](O)C(=O)N[C@@H](CO[C@H]1O[C@@H](CO)[C@H](O)[C@H](O)[C@@H]1O)[C@H](O)[C@H](O)CCCCCCCCCCCC(C)CC` (some centres undefined): the Survival in the assay on Mus musculus [1] came out at 11.2 days; in the assay with Mus musculus [4], 28.2 days; in the assay with Mus musculus [5], 34.5 days. Further, the values for the T/C in the assay on Mus musculus [1], with Mus musculus [4] and with Mus musculus [5] were 108%, 152% and 187%, respectively. The Control in the assay listed under Mus musculus [2] stood at 209%; in the assay listed under Mus musculus [3], 255%; in the assay listed under Mus musculus [6], 179%.
`CCCCCCC/C=C/C(C)=C/CC/C=C/[C@@H](O)[C@H](CO[C@H]1O[C@@H](CO)[C@H](O)[C@H](O)[C@@H]1O)NC(=O)[C@H](O)CCCCCCCCCCCCCCCCCCCCCC`: the Survival is 11.3 days in the assay with Mus musculus [1], 21.3 days in the assay on Mus musculus [4] and 23.7 days with Mus musculus [5]. In addition, the values for the T/C with Mus musculus [1], in the assay with Mus musculus [4] and in the assay on Mus musculus [5] were 109%, 115% and 127%, respectively. Further, the Control in the assay filed under Mus musculus [2] amounted to 134%; in the assay listed under Mus musculus [3] it was 169%; in the assay filed under Mus musculus [6], 142%.
Consider `CCCCCCCCCCCCCC(=O)N[C@H](CO[C@H]1O[C@@H](CO)[C@H](O)[C@H](O)[C@@H]1O)[C@@H](O)CCCCCCCCCCCCC`, for which the TGIR in the assay with Mus musculus [7] came to 52.6%; in the assay on Mus musculus [8], 55.9%; in the assay on Mus musculus [9], 42.2%; in the assay on Mus musculus [10], 40.1%.
Turning to `CCCCCCCCCCCCCC(=O)N[C@@H](CO[C@H]1O[C@@H](CO)[C@H](O)[C@H](O)[C@@H]1O)[C@H](O)CCCCCCCCCCCCC`, the TGIR in the assay with Mus musculus [7] stood at 66.6%; in the assay on Mus musculus [8], 76.5%; with Mus musculus [9], 66.4%; with Mus musculus [10] it was 67.9%.
As for `CCCCCCCCCCCCCC(=O)N[C@H](CO[C@H]1O[C@@H](CO)[C@H](O)[C@H](O)[C@@H]1O)[C@H](O)CCCCCCCCCCCCC`, the TGIR with Mus musculus [7] is reported as 13%; with Mus musculus [9] it was 11%; with Mus musculus [10], 5.1%.
For `CCCCCCCCCCCCCC(=O)N[C@@H](CO[C@H]1O[C@@H](CO)[C@H](O)[C@H](O)[C@@H]1O)[C@@H](O)CCCCCCCCCCCCC`, in that order: 4.9%, 8.5% and 13.1%.
As for `CCCCCCCCCCCCCCCCCCCCCCCCCC(=O)N[C@@H](CO[C@H]1O[C@@H](CO)[C@H](O)[C@H](O)[C@@H]1O)[C@H](O)[C@H](O)CCCCCCCCCCCCCC`, the TGIR was 17.2% with Mus musculus [7], 16.1% in the assay on Mus musculus [8], 20.3% in the assay with Mus musculus [9] and -3.8% in the assay with Mus musculus [10].
On to `CCCCCCCCCCCCCCC[C@@H](O)[C@H](CO[C@H]1O[C@@H](CO)[C@H](O)[C@H](O)[C@@H]1O)NC(=O)CCCCCCCCCCCCC` (stereo in doubt; form 1), for which the TGIR in the assay with Mus musculus [11] was found to be 35%; with Mus musculus [12] it was 29%; in the assay with Mus musculus [13], 33.1%; in the assay on Mus musculus [14], 28.3%; in the assay on Mus musculus [15], 22.1%; in the assay on Mus musculus [16], 26.9%. For the same molecule, the results for the TGIR in the assay on Mus musculus [17] and in the assay on Mus musculus [18] were 38% and 3.9%, respectively.
On to `CCCCCCCCCCCCCCC[C@@H](O)[C@H](CO[C@H]1O[C@@H](CO)[C@H](O)[C@H](O)[C@@H]1O)NC(=O)CCCCCCCCCCCCC` (stereo in doubt; form 2), for which the TGIR in the assay on Mus musculus [11] is 1.4%; in the assay on Mus musculus [12] it was -28%; with Mus musculus [13] it was 45%; in the assay on Mus musculus [14], -7.6%; in the assay on Mus musculus [15], 29.2%; in the assay on Mus musculus [16], 45.2%. Further, the TGIR was determined as 2.7% in the assay with Mus musculus [17] and 7% in the assay on Mus musculus [18].
In the case of `CCCCCCCCCCCCCCC[C@@H](O)[C@H](CO[C@H]1O[C@@H](CO)[C@H](O)[C@H](O)[C@@H]1O)NC(=O)CCCCCCCCCCCCC` (stereo in doubt; form 3), the TGIR was found to be 26.8% with Mus musculus [11]; 35.3% in the assay with Mus musculus [12]; 41.5% in the assay with Mus musculus [13]; 4.2% in the assay on Mus musculus [14]; 28.9% in the assay with Mus musculus [15]; 45.6% in the assay with Mus musculus [16]. Further, the TGIR was determined as 45.2% in the assay with Mus musculus [17] and 21.3% in the assay on Mus musculus [18].
For the molecule `CCCCCCCCCCCCCCC[C@@H](O)[C@H](CO[C@H]1O[C@@H](CO)[C@H](O)[C@H](O)[C@@H]1O)NC(=O)CCCCCCCCCCCCC` (stereo in doubt; form 4), the TGIR with Mus musculus [11] was 64.8%; in the assay on Mus musculus [12], 59.5%; in the assay on Mus musculus [13], 68.1%; in the assay with Mus musculus [14], 54%; in the assay on Mus musculus [15], 58.1%; in the assay with Mus musculus [16], 69%. In addition, the figures for the TGIR in the assay on Mus musculus [17] and in the assay on Mus musculus [18] were 62% and 36.7%, respectively.
As to `CCCCCCCCCCCCCCCCCCCCCCCCCC(=O)N[C@@H](CO[C@H]1O[C@H](CO)[C@H](O)[C@H](O)[C@H]1O)[C@H](O)[C@H](O)CCCCCCCCCCCCCC` [RGI-7000], the TGIR in the assay with Mus musculus [7] amounted to 50.9%; with Mus musculus [8], 41.1%; in the assay on Mus musculus [9], 51.1%; with Mus musculus [10] it was 40.2%.
